Test results as given in ChEMBL document CHEMBL1153280, “Synthesis and in vitro activity of dicationic bis-benzimidazoles as a new class of anti-MRSA and anti-VRE agents” (2009).
In brackets after ≈: the same amount, converted by molar mass.

Columns and labels:
Assay type in all cases: functional
Staphylococcus aureus [1] = test: Antibacterial activity against Staphylococcus aureus ATCC 29213 by NCCLS method
Staphylococcus aureus [2] = test: Antibacterial activity against multidrug-resistant Staphylococcus aureus BAA-39 by NCCLS method
Staphylococcus aureus [3] = test: Antibacterial activity against methicillin-resistant Staphylococcus aureus ATCC 33591 by NCCLS method
[4] = test system: Staphylococcus epidermidis; test: Antibacterial activity against Staphylococcus epidermidis ATCC 12228 by NCCLS method
[5] = test system: Staphylococcus epidermidis; test: Antibacterial activity against methicillin-resistant Staphylococcus epidermidis ATCC 51625 by NCCLS method
Streptococcus pneumoniae = test: Antibacterial activity against Streptococcus pneumoniae ATCC 6301 by NCCLS method
Enterococcus faecalis = test: Antibacterial activity against vancomycin-resistant Enterococcus faecalis ATCC 51575 by NCCLS method
Enterococcus faecium = test: Antibacterial activity against vancomycin-resistant Enterococcus faecium ATCC 700221 by NCCLS method
Bacillus subtilis = test: Antibacterial activity against Bacillus subtilis ATCC 23857 by NCCLS method
Bacillus cereus = test: Antibacterial activity against Bacillus cereus ATCC 11778 by NCCLS method
Bacteroides fragilis = test: Antibacterial activity against Bacteroides fragilis ATCC 23745 by NCCLS method
Clostridium perfringens = test: Antibacterial activity against Clostridium perfringens ATCC 10388 by NCCLS method

| SMILES | MIC (Staphylococcus aureus [1]) [µg/mL] | MIC (Staphylococcus aureus [2]) [µg/mL] | MIC (Staphylococcus aureus [3]) [µg/mL] | MIC [4] [µg/mL] | MIC [5] [µg/mL] | MIC (Streptococcus pneumoniae) [µg/mL] | MIC (Enterococcus faecalis) [µg/mL] | MIC (Enterococcus faecium) [µg/mL] | MIC (Bacillus subtilis) [µg/mL] | MIC (Bacillus cereus) [µg/mL] | MIC (Bacteroides fragilis) [µg/mL] | MIC (Clostridium perfringens) [µg/mL] |
| --- | --- | --- | --- | --- | --- | --- | --- | --- | --- | --- | --- | --- |
| CC(C)NC(=N)c1ccc2[nH]c(-c3ccc(CCc4ccc(-c5nc6cc(C(=N)NC(C)C)ccc6[nH]5)nc4)cc3)nc2c1 | 4 (≈ 6.85 µM) | 8 (≈ 13.7 µM) | 4 (≈ 6.85 µM) | 0.25 (≈ 0.428 µM) | 1 (≈ 1.71 µM) | 0.12 (≈ 0.206 µM) | 2 (≈ 3.43 µM) | 1 (≈ 1.71 µM) | 1 (≈ 1.71 µM) | 0.5 (≈ 0.857 µM) | 32 (≈ 54.8 µM) | 8 (≈ 13.7 µM) |
| CC(C)NC(=N)c1ccc2[nH]c(-c3ccc(CCc4ccc(-c5nc6cc(C(=N)NC(C)C)ccc6[nH]5)cn4)cc3)nc2c1 | 16 (≈ 27.4 µM) | 8 (≈ 13.7 µM) | 8 (≈ 13.7 µM) | 2 (≈ 3.43 µM) | 4 (≈ 6.85 µM) | 8 (≈ 13.7 µM) | 4 (≈ 6.85 µM) | 16 (≈ 27.4 µM) | 32 (≈ 54.8 µM) | 8 (≈ 13.7 µM) | 16 (≈ 27.4 µM) | 0.5 (≈ 0.857 µM) |
| CCC(C)NC(=N)c1ccc2[nH]c(-c3ccc(CCc4ccc(-c5nc6cc(C(=N)NC(C)CC)ccc6[nH]5)cc4)cc3)nc2c1 (centres undefined) | 1 (≈ 1.64 µM) | 0.5 (≈ 0.819 µM) | 0.25 (≈ 0.409 µM) | < 0.06 | 0.12 (≈ 0.196 µM) | 0.12 (≈ 0.196 µM) | 2 (≈ 3.27 µM) | 0.5 (≈ 0.819 µM) | 0.25 (≈ 0.409 µM) | 0.5 (≈ 0.819 µM) | 2 (≈ 3.27 µM) | 0.5 (≈ 0.819 µM) |
| N=C(NC1CCCC1)c1ccc2[nH]c(-c3ccc(CCc4ccc(-c5nc6cc(C(=N)NC7CCCC7)ccc6[nH]5)cc4)cc3)nc2c1 | 1 (≈ 1.58 µM) | 1 (≈ 1.58 µM) | 0.5 (≈ 0.788 µM) | < 0.06 | 0.12 (≈ 0.189 µM) | 0.25 (≈ 0.394 µM) | 2 (≈ 3.15 µM) | 0.25 (≈ 0.394 µM) | 1 (≈ 1.58 µM) | 0.5 (≈ 0.788 µM) | > 32 | 4 (≈ 6.3 µM) |
| O=C(O)c1cn(C2CC2)c2cc(N3CCNCC3)c(F)cc2c1=O [CIPROFLOXACIN] | 0.5 (≈ 1.51 µM) | 8 (≈ 24.1 µM) | ≤ 0.12 | ≤ 0.12 | ≤ 0.12 |  | 0.5 (≈ 1.51 µM) | > 64 | ≤ 0.12 | ≤ 0.12 | 0.5 (≈ 1.51 µM) |  |
| COc1ccc(CCc2ccc(-c3nc4ccc(C(=N)NC(C)C)cc4[nH]3)cc2)cc1 | 4 (≈ 9.7 µM) | 8 (≈ 19.4 µM) | 4 (≈ 9.7 µM) | 4 (≈ 9.7 µM) | 4 (≈ 9.7 µM) | 8 (≈ 19.4 µM) | 32 (≈ 77.6 µM) | 8 (≈ 19.4 µM) | 4 (≈ 9.7 µM) | 4 (≈ 9.7 µM) | > 32 | 16 (≈ 38.8 µM) |
| N=C(N)c1ccc2[nH]c(-c3ccc(CCc4ccc(-c5nc6cc(C(=N)N)ccc6[nH]5)cc4)cc3)nc2c1 | > 32 | > 32 | > 32 | 4 (≈ 8.02 µM) | 32 (≈ 64.2 µM) | > 32 | > 32 | 32 (≈ 64.2 µM) | 32 (≈ 64.2 µM) | > 32 | > 32 | > 32 |
| CC(C)NC(=N)c1ccc2[nH]c(-c3ccc(CCc4ccc(-c5nc6cc(C(=N)NC(C)C)ccc6[nH]5)s4)cc3)nc2c1 | 1 (≈ 1.7 µM) | 0.5 (≈ 0.849 µM) | 0.5 (≈ 0.849 µM) | 0.12 (≈ 0.204 µM) | 0.12 (≈ 0.204 µM) |  | 0.5 (≈ 0.849 µM) |  | 0.5 (≈ 0.849 µM) | 0.25 (≈ 0.425 µM) | 4 (≈ 6.79 µM) | 0.25 (≈ 0.425 µM) |
| CC(C)NC(=N)c1ccc2[nH]c(-c3ccc(CCc4ccc(-c5nc6cc(C(=N)NC(C)C)ccc6[nH]5)cc4)cc3)nc2c1 | 0.25 (≈ 0.429 µM) | 0.5 (≈ 0.858 µM) | 0.25 (≈ 0.429 µM) | < 0.06 | 0.125 (≈ 0.214 µM) | < 0.06 | 0.25 (≈ 0.429 µM) | 0.12 (≈ 0.206 µM) | 0.12 (≈ 0.206 µM) | 0.12 (≈ 0.206 µM) | 0.5 (≈ 0.858 µM) | 0.25 (≈ 0.429 µM) |
